Laboratory results: patent US20100298141A1, “SUBSTITUTED PYRIDINE N-OXIDE HERBICIDES” (E. I. DU PONT DE NEMOURS AND COMPANY, priority 2007, published 2010)

What was measured:
[1] = tested on: soybean; assay: Test C pre-/postemergence test; assay type: in vivo, Glycine max; conditions: for Plant response rating, Soybean: 31 g ai/ha, scale 0 to 100 (0 no effect, 100 complete control)
Procedure, shortened: (§1)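 Compounds in a non-phytotoxic solvent with surfactant applied preemergence to seeded pots and, at the same time, postemergence to plants 2–18 cm tall (1- to 4-leaf stage). Paddy tests: pots flooded to 3 cm, compound applied into the water, depth held throughout.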

[2] = tested on: common (oilseed) sunflower; assay: Test C pre-/postemergence test; assay type: in vivo, Helianthus annuus; conditions: for Plant response rating, Sunflower: 31 g ai/ha, scale 0 to 100 (0 no effect, 100 complete control)
Procedure, shortened: as §1

[3] = tested on: yellow nutsedge; assay: Test C pre-/postemergence test; assay type: in vivo, Cyperus esculentus; conditions: for Plant response rating, Nutsedge, Yellow: 31 g ai/ha, scale 0 to 100 (0 no effect, 100 complete control)
Procedure, shortened: as §1

[4] = tested on: pigweed; assay: Test C pre-/postemergence test; assay type: in vivo, Amaranthus retroflexus; conditions: for Plant response rating, Pigweed: 31 g ai/ha, scale 0 to 100 (0 no effect, 100 complete control)
Procedure, shortened: as §1

[5] = tested on: bermudagrass; assay: Test C pre-/postemergence test; assay type: in vivo, Cynodon dactylon; conditions: for Plant response rating, Bermudagrass: 31 g ai/ha
Procedure, shortened: as §1

[6] = tested on: morningglory; assay: Test A pre-/postemergence greenhouse test; assay type: in vivo, Ipomoea spp.; conditions: for Plant response rating, Morningglory: 0 to 100 scale where 0 is no effect and 100 is complete control; for Morningglory plant response rating: 0 to 100 scale
Procedure, shortened: (§2)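 Greenhouse herbicide screen, pre- and postemergence in parallel. Soil: loam plus sand. Formulation: non-phytotoxic solvent mix with surfactant. Postemergence stage: one to two leaves, 2–10 cm height. Evaluation: visual injury, compared with untreated controls, about 10 days after treatment.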

[7] = tested on: Goosegrass; assay: Test C pre-/postemergence test; assay type: in vivo, Eleusin indica; conditions: for Plant response rating, Goosegrass: 31 g ai/ha, scale 0 to 100 (0 no effect, 100 complete control)
Procedure, shortened: as §1

[8] = tested on: corn; assay: Test A pre-/postemergence greenhouse test; assay type: in vivo, Zea mays; conditions: for Plant response rating, Corn: 0 to 100 scale where 0 is no effect and 100 is complete control; for Corn plant response rating: 0 to 100 scale
Procedure, shortened: as §2

[9] = tested on: umbrella sedge; assay: Test C flooded paddy test; assay type: in vivo, Cyperus difformis; conditions: Flood
Procedure, shortened: (§3)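 Pots were flooded to 3 cm above the soil surface at treatment, compound applied directly to the paddy water, and that depth held throughout. Plants were kept in a greenhouse for 13 to 15 days, then visually rated against untreated controls.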

[10] = tested on: Italian ryegrass; assay: Test C pre-/postemergence test; assay type: in vivo, Lolium multiflorum; conditions: for Plant response rating, Ryegrass, Italian: 31 g ai/ha, scale 0 to 100 (0 no effect, 100 complete control)
Procedure, shortened: as §1

[11] = tested on: wheat; assay: Test A pre-/postemergence greenhouse test; assay type: in vivo, Triticum aestivum; conditions: for Plant response rating, Wheat: 0 to 100 scale where 0 is no effect and 100 is complete control; for Wheat plant response rating: 0 to 100 scale
Procedure, shortened: as §2

[12] = tested on: morningglory; assay: Test C pre-/postemergence test; assay type: in vivo, Ipomoea coccinea; conditions: for Plant response rating, Morningglory: 31 g ai/ha, scale 0 to 100 (0 no effect, 100 complete control)
Procedure, shortened: as §1

[13] = tested on: crabgrass; assay: Test A pre-/postemergence greenhouse test; assay type: in vivo, Digitaria sanguinalis; conditions: for Plant response rating, Crabgrass, Large: 0 to 100 scale where 0 is no effect and 100 is complete control; for Crabgrass, Large plant response rating: 0 to 100 scale
Procedure, shortened: as §2

[14] = tested on: barnyardgrass; assay: Test C flooded paddy test; assay type: in vivo, Echinochloa crus-galli; conditions: Flood
Procedure, shortened: as §3

[15] = tested on: catchweed bedstraw; assay: Test C pre-/postemergence test; assay type: in vivo, Galium aparine; conditions: for Plant response rating, Galium: 31 g ai/ha, scale 0 to 100 (0 no effect, 100 complete control)
Procedure, shortened: as §1

[16] = tested on: wheat; assay: Test C pre-/postemergence test; assay type: in vivo, Triticum aestivum; conditions: for Plant response rating, Wheat: 31 g ai/ha, scale 0 to 100 (0 no effect, 100 complete control)
Procedure, shortened: as §1

[17] = tested on: giant foxtail; assay: Test A pre-/postemergence greenhouse test; assay type: in vivo, Setaria faberi; conditions: for Plant response rating, Foxtail, Giant: 0 to 100 scale where 0 is no effect and 100 is complete control; for Foxtail, Giant plant response rating: 0 to 100 scale
Procedure, shortened: as §2

[18] = 62 g ai/ha, Preemergence, scale 0 to 100
[19] = 125 g ai/ha, preemergence, scale 0 (no effect) to 100 (complete control)
[20] = preemergence, 250 g ai/ha, scale 0 (no effect) to 100 (complete control)
[21] = 62 g ai/ha, Preemergence, scale 0 to 100 (0 no effect, 100 complete control)
[22] = Preemergence, scale 0 to 100 (0 no effect, 100 complete control)
[23] = Postemergence, 500 g ai/ha, 0 is no effect, 100 is complete control
[24] = Preemergence, 125 g ai/ha, 0 no effect, 100 complete control
[25] = 62 g ai/ha, scale 0 to 100 (0 no effect, 100 complete control)
[26] = 250 g ai/ha, scale 0 to 100, 0 no effect, 100 complete control, 13 to 15 days

Cn1nc(C(F)(F)F)c(C[S+]([O-])c2cccc[n+]2[O-])c1OCC(F)F (stereo not shown) [Compound 75]
Soybean plant response rating [1, 18]: 98 | Soybean plant response rating [1, 19]: 100 | Plant response rating, Soybean ([1]; Preemergence): 0 | Sunflower plant response rating [2, 18]: 50 | Sunflower plant response rating [2, 19]: 100 | Plant response rating, Sunflower ([2]; Preemergence): 0 | Sunflower plant response rating [2, 20]: 100 | Nutsedge, Yellow plant response rating [3, 18]: 50 | Nutsedge, Yellow plant response rating [3, 19]: 70 | Plant response rating, Nutsedge, Yellow ([3]; Preemergence): 0 | Nutsedge, Yellow plant response rating [3, 20]: 100 | Pigweed plant response rating [4, 18]: 100 | Pigweed plant response rating [4, 19]: 100 | Plant response rating, Pigweed ([4]; Preemergence): 100 | Pigweed plant response rating [4, 20]: 100 | Bermudagrass plant response rating [5, 21]: 100 | Bermudagrass plant response rating [5, 19]: 100 | Plant response rating, Bermudagrass [5, 22]: 100 | Bermudagrass plant response rating [5, 20]: 100 | Plant response rating, Morningglory ([6]; Postemergence, 125 g ai/ha): 40 | Morningglory plant response rating [6, 23]: 90 | Morningglory plant response rating [6, 24]: 40 | Plant response rating, Morningglory ([6]; Preemergence, 500 g ai/ha): 90 | Goosegrass plant response rating [7, 18]: 85 | Goosegrass plant response rating [7, 19]: 100 | Plant response rating, Goosegrass ([7]; Preemergence): 80 | Goosegrass plant response rating [7, 20]: 100 | Plant response rating, Corn ([8]; Postemergence, 125 g ai/ha): 50 | Corn plant response rating [8, 23]: 70 | Corn plant response rating [8, 24]: 0 | Plant response rating, Corn ([8]; Preemergence, 500 g ai/ha): 70 | Plant response rating, Sedge, Umbrella [9, 25]: 50 | Plant response rating, Sedge, Umbrella [9, 26]: 85 | Ryegrass, Italian plant response rating [10, 18]: 70 | Ryegrass, Italian plant response rating [10, 19]: 100 | Plant response rating, Ryegrass, Italian ([10]; Preemergence): 0 | Ryegrass, Italian plant response rating [10, 20]: 100 | Plant response rating, Wheat ([11]; Postemergence, 125 g ai/ha): 50 | Wheat plant response rating [11, 23]: 70 | Wheat plant response rating [11, 24]: 70 | Plant response rating, Wheat ([11]; Preemergence, 500 g ai/ha): 100 | Morningglory plant response rating [12, 18]: 100 | Morningglory plant response rating [12, 19]: 100 | Plant response rating, Morningglory ([12]; Preemergence): 30 | Morningglory plant response rating [12, 20]: 100 | Plant response rating, Crabgrass, Large ([13]; Postemergence, 125 g ai/ha): 70 | Crabgrass, Large plant response rating [13, 23]: 80 | Crabgrass, Large plant response rating [13, 24]: 70 | Plant response rating, Crabgrass, Large ([13]; Preemergence, 500 g ai/ha): 100 | Plant response rating, Barnyardgrass [14, 25]: 0 | Plant response rating, Barnyardgrass [14, 26]: 45 | Galium plant response rating [15, 18]: 100 | Galium plant response rating [15, 19]: 100 | Plant response rating, Galium ([15]; Preemergence): 80 | Galium plant response rating [15, 20]: 100 | Wheat plant response rating [16, 18]: 30 | Wheat plant response rating [16, 19]: 60 | Plant response rating, Wheat ([16]; Preemergence): 0 | Wheat plant response rating [16, 20]: 95 | Plant response rating, Foxtail, Giant ([17]; Postemergence, 125 g ai/ha): 80 | Foxtail, Giant plant response rating [17, 23]: 90 | Foxtail, Giant plant response rating [17, 24]: 90 | Plant response rating, Foxtail, Giant ([17]; Preemergence, 500 g ai/ha): 100

C#CCOc1c(C[S+]([O-])c2cccc[n+]2[O-])c(C(F)(F)F)nn1C (stereo not shown) [Compound 76]
Soybean plant response rating [1, 18]: 40 | Soybean plant response rating [1, 19]: 80 | Plant response rating, Soybean ([1]; Preemergence): 0 | Soybean plant response rating [1, 20]: 95 | Sunflower plant response rating [2, 18]: 35 | Sunflower plant response rating [2, 19]: 50 | Plant response rating, Sunflower ([2]; Preemergence): 0 | Sunflower plant response rating [2, 20]: 70 | Nutsedge, Yellow plant response rating [3, 18]: 50 | Nutsedge, Yellow plant response rating [3, 19]: 80 | Plant response rating, Nutsedge, Yellow ([3]; Preemergence): 0 | Nutsedge, Yellow plant response rating [3, 20]: 95 | Pigweed plant response rating [4, 18]: 80 | Pigweed plant response rating [4, 19]: 80 | Plant response rating, Pigweed ([4]; Preemergence): 50 | Pigweed plant response rating [4, 20]: 100 | Bermudagrass plant response rating [5, 21]: 100 | Bermudagrass plant response rating [5, 19]: 100 | Plant response rating, Bermudagrass [5, 22]: 80 | Bermudagrass plant response rating [5, 20]: 100 | Plant response rating, Morningglory ([6]; Postemergence, 125 g ai/ha): 70 | Morningglory plant response rating [6, 23]: 90 | Morningglory plant response rating [6, 24]: 50 | Plant response rating, Morningglory ([6]; Preemergence, 500 g ai/ha): 90 | Goosegrass plant response rating [7, 18]: 95 | Goosegrass plant response rating [7, 19]: 98 | Plant response rating, Goosegrass ([7]; Preemergence): 80 | Goosegrass plant response rating [7, 20]: 100 | Plant response rating, Corn ([8]; Postemergence, 125 g ai/ha): 40 | Corn plant response rating [8, 23]: 60 | Corn plant response rating [8, 24]: 0 | Plant response rating, Corn ([8]; Preemergence, 500 g ai/ha): 80 | Plant response rating, Sedge, Umbrella [9, 25]: 0 | Plant response rating, Sedge, Umbrella [9, 26]: 100 | Ryegrass, Italian plant response rating [10, 18]: 50 | Ryegrass, Italian plant response rating [10, 19]: 70 | Plant response rating, Ryegrass, Italian ([10]; Preemergence): 0 | Ryegrass, Italian plant response rating [10, 20]: 100 | Plant response rating, Wheat ([11]; Postemergence, 125 g ai/ha): 20 | Wheat plant response rating [11, 23]: 60 | Wheat plant response rating [11, 24]: 20 | Plant response rating, Wheat ([11]; Preemergence, 500 g ai/ha): 100 | Morningglory plant response rating [12, 18]: 20 | Morningglory plant response rating [12, 19]: 100 | Plant response rating, Morningglory ([12]; Preemergence): 0 | Morningglory plant response rating [12, 20]: 100 | Plant response rating, Crabgrass, Large ([13]; Postemergence, 125 g ai/ha): 50 | Crabgrass, Large plant response rating [13, 23]: 90 | Crabgrass, Large plant response rating [13, 24]: 80 | Plant response rating, Crabgrass, Large ([13]; Preemergence, 500 g ai/ha): 90 | Plant response rating, Barnyardgrass [14, 25]: 0 | Plant response rating, Barnyardgrass [14, 26]: 20 | Galium plant response rating [15, 18]: 100 | Galium plant response rating [15, 19]: 100 | Plant response rating, Galium ([15]; Preemergence): 100 | Galium plant response rating [15, 20]: 100 | Wheat plant response rating [16, 18]: 60 | Wheat plant response rating [16, 19]: 98 | Plant response rating, Wheat ([16]; Preemergence): 0 | Wheat plant response rating [16, 20]: 100 | Plant response rating, Foxtail, Giant ([17]; Postemergence, 125 g ai/ha): 80 | Foxtail, Giant plant response rating [17, 23]: 90 | Foxtail, Giant plant response rating [17, 24]: 90 | Plant response rating, Foxtail, Giant ([17]; Preemergence, 500 g ai/ha): 100
